Key:
[1] = test system: EA (enzyme acceptor fragment of β-galactosidase); assay: Enzyme Fragment Complementation (EFC) assay; type: biochemical; conditions: 50 nM ED, EA plus chemiluminescence substrate, 60 min room temperature; compared to linear ED (cysteines capped with maleimide)
Procedure: For determination of EFC activity, 10 μL of 50 nM cyclic ED-Lactamase substrate (cED47mer) or 10 μl linear ED (Cysteines capped with maleimide, DiscoveRx, Fremont, Calif.) 50 nM was added to 20 μl EDDB Enzyme donor dilution buffer (MES 10 mM, NaCl 200 mM, EGTA 10 mM, BSA 2 mg/ml, NaN3 14.6 mM) (DiscoveRx, Fremont, Calif.) in a 384-well white plate.

[2] = molecular target: TEM-1 lactamase (Escherichia coli, UniProt P62593); conditions: cED47mer 50 nM, CHOK1 cell lysates, 3-hour incubation with varying TEM1 lactamase (picomole), read 1 hr after EA and substrate
Procedure: The assay comprises two basic steps: • 1) hydrolysis of the lactam in the cyclic ED lactamase substrate (cED 47mer) by the lactamase to yield a linear ED; and • 2) detection of the linear ED by EA and β-galactosidase chemiluminescent substrate. The lactamase reaction step comprises 101 of cell lysate (<4000 CHOK1 cells, DiscoveRx, Fremont, Calif.) or cell lysis buffer (part # 30-175, DiscoveRx, Fremont, Calif.), 10 μl cED47mer substrate at 50 nM and 10 μl of lactamase (TEM-1, Invitrogen Part # PV3575) at varying concentrations. The reaction mixture is then incubated at ambient temperature for various time intervals. The detection step comprises addition of 10 μL1 EA (1-2 μM, DiscoveRx, Fremont, Calif.) and 10 μl chemiluminescent substrate reagent (Applied Biosystems, Foster City, Calif.).
The chemiluminescence was read 1 hr after addition of EA and chemiluminescent substrate on a Packard Lumincount Reader (Packard Instruments, Meridien, Conn.) with the PMT set at 1100V and read time 1 second per well.

cED47mer: 47-mer β-galactosidase enzyme donor peptide (SEQ ID NO:1) cyclized through its two cysteines with bis-maleimide cephem compound 3 (CSLAVVLQQRRDWENPGVTQLNRLAAHPPFASWRNSEEARTDCPSQQL; cyclized via cysteines with bis-maleimide cephem compound 3; …ON)
EFC activity (FIG. 4) [1]: reduction of EFC activity
chemiluminescence signal after cleavage with lactamase (FIG. 5) [2]: increased with concentration of E. coli TEM1 lactamase (picomole) in a dose dependent fashion
